Experimental data published in ChEMBL document CHEMBL4014287, “Jesridonin in combination with paclitaxel demonstrates synergistic anti-tumor activity in human esophageal carcinoma cells” (Bioorg Med Chem Lett, 2017).
Activity calls are given as the source filed them. The rule behind the calls is not given here.

How the values were obtained:
[1] = tested on: ECa-109 cell line; assay: Induction of apoptosis in human EC109 cells assessed as nuclear shrinkage at 15 uM in presence of 5 nM paclitaxel after 24 hrs by Hochest 33258 staining based fluorescent microscopic analysis; assay type: functional, cell-based
[2] = tested on: ECa-109 cell line; assay: Cytotoxicity against human EC109 cells assessed as combination index at 5 uM in presence of 5 nM paclitaxel; assay type: functional
[3] = tested on: ECa-109 cell line; assay: Induction of apoptosis in human EC109 cells assessed as increase in Bax level at 15 uM in presence of 5 nM paclitaxel by Western blot method; assay type: functional, cell-based
[4] = tested on: Mus musculus; assay: Hepatotoxicity in nude mouse xenografted with human EC109 cells assessed as change in serum total protein level at 10 mg/kg in presence of paclitaxel measured after 21 days; assay type: toxicity, organism-based; conditions: in vivo, 504 h
[5] = tested on: Mus musculus; assay: Cardiotoxicity in nude mouse xenografted with human EC109 cells at 10 mg/kg in presence of paclitaxel measured after 21 days by histopathological analysis; assay type: toxicity, organism-based; conditions: in vivo, 504 h
[6] = tested on: ECa-109 cell line; assay: Antitumor activity against human EC109 cells xenografted in nude mouse assessed as tumor growth inhibition at 10 mg/kg in presence of 5 mg/kg paclitaxel measured after 21 days relative to control; assay type: functional
[7] = tested on: ECa-109 cell line; assay: Induction of apoptosis in human EC109 cells assessed as increase in Bak level at 15 uM in presence of 5 nM paclitaxel by Western blot method; assay type: functional, cell-based
[8] = tested on: ECa-109 cell line; assay: Cytotoxicity against human EC109 cells assessed as combination index at 30 uM in presence of 5 nM paclitaxel; assay type: functional
[9] = tested on: ECa-109 cell line; assay: Induction of apoptosis in human EC109 cells assessed as decrease in Mcl-1 level at 15 uM in presence of 5 nM paclitaxel by Western blot method; assay type: functional, cell-based
[10] = tested on: ECa-109 cell line; assay: Cytotoxicity against human EC109 cells assessed as combination index at 15 uM in presence of 2.5 nM paclitaxel; assay type: functional
[11] = tested on: ECa-109 cell line; assay: Induction of apoptosis in human EC109 cells assessed as viable cells at 15 uM after 24 hrs in presence of paclitaxel by Annexin V-FITC/propidium iodide staining based flow cytometry (reference value: 96.1%); assay type: functional; conditions: ECa-109, 24 h, read-out: Activity
[12] = tested on: Mus musculus; assay: Toxicity in nude mouse xenografted with human EC109 cells assessed as effect on lungs at 10 mg/kg in presence of paclitaxel measured after 21 days by histopathological analysis; assay type: organism-based; conditions: in vivo, 504 h
[13] = tested on: ECa-109 cell line; assay: Induction of apoptosis in human EC109 cells assessed as decrease in pro-caspase 3 expression at 15 uM in presence of 5 nM paclitaxel by Western blot method; assay type: functional, cell-based
[14] = tested on: ECa-109 cell line; assay: Induction of apoptosis in human EC109 cells assessed as early apoptotic cells at 15 uM after 24 hrs in presence of paclitaxel by Annexin V-FITC/propidium iodide staining based flow cytometry (reference value: 1.3%); assay type: functional
[15] = tested on: ECa-109 cell line; assay: Antitumor activity against human EC109 cells xenografted in nude mouse assessed as decrease in tumor weight at 10 mg/kg in presence of 5 mg/kg paclitaxel measured after 21 days; assay type: functional, organism-based
[16] = tested on: Mus musculus; assay: Toxicity in nude mouse xenografted with human EC109 cells assessed as effect on spleen at 10 mg/kg in presence of paclitaxel measured after 21 days by histopathological analysis; assay type: organism-based; conditions: in vivo, 504 h
[17] = tested on: ECa-109 cell line; assay: Cytotoxicity against human EC109 cells assessed as combination index at 5 uM in presence of 10 nM paclitaxel; assay type: functional
[18] = tested on: Mus musculus; assay: Toxicity in nude mouse xenografted with human EC109 cells assessed as pathological changes at 10 mg/kg in presence of paclitaxel measured after 21 days; assay type: organism-based; conditions: in vivo, 504 h
[19] = tested on: ECa-109 cell line; assay: Cytotoxicity against human EC109 cells assessed as combination index at 10 uM in presence of 5 nM paclitaxel; assay type: functional
[20] = tested on: ECa-109 cell line; assay: Cytotoxicity against human EC109 cells assessed as combination index at 10 uM in presence of 10 nM paclitaxel; assay type: functional
[21] = tested on: ECa-109 cell line; assay: Cytotoxicity against human EC109 cells assessed as reduction in cell viability after 24 hrs by MTT assay; assay type: functional, cell-based
[22] = tested on: ECa-109 cell line; assay: Induction of apoptosis in human EC109 cells assessed as nuclear condensation at 15 uM after 24 hrs by Hochest 33258 staining based fluorescent microscopic analysis; assay type: functional, cell-based
[23] = tested on: ECa-109 cell line; assay: Induction of apoptosis in human EC109 cells assessed as viable cells at 15 uM after 24 hrs by Annexin V-FITC/propidium iodide staining based flow cytometry (reference value: 96.1%); assay type: functional; conditions: ECa-109, 24 h, read-out: Activity
[24] = tested on: ECa-109 cell line; assay: Cytotoxicity against human EC109 cells assessed as combination index at 30 uM in presence of 2.5 nM paclitaxel; assay type: functional
[25] = tested on: Mus musculus; assay: Toxicity in nude mouse xenografted with human EC109 cells assessed as pathological changes at 10 mg/kg measured after 21 days; assay type: organism-based; conditions: in vivo, 504 h
[26] = tested on: ECa-109 cell line; assay: Induction of apoptosis in human EC109 cells assessed as necrotic cells at 15 uM after 24 hrs by Annexin V-FITC/propidium iodide staining based flow cytometry (reference value: 1.6 %); assay type: functional
[27] = tested on: Mus musculus; assay: Hepatotoxicity in nude mouse xenografted with human EC109 cells assessed as change in serum ALP level at 10 mg/kg in presence of paclitaxel measured after 21 days; assay type: toxicity, organism-based; conditions: in vivo, 504 h
[28] = tested on: ECa-109 cell line; assay: Antitumor activity against human EC109 cells xenografted in nude mouse assessed as reduction in tumor volume at 10 mg/kg in presence of 5 mg/kg paclitaxel measured after 21 days; assay type: functional, organism-based
[29] = tested on: Mus musculus; assay: Hepatotoxicity in nude mouse xenografted with human EC109 cells assessed as change in serum GGT level at 10 mg/kg in presence of paclitaxel measured after 21 days; assay type: toxicity, organism-based; conditions: in vivo, 504 h

C=C1C(=O)[C@@]23[C@@H]4OC(c5ccc(Cl)cc5)O[C@@]25OC[C@@]2([C@H]([C@@H]5O)C(C)(C)CC[C@@H]2O)[C@@H]3CC[C@@H]14 (some centres undefined)
Activity [1]: Active | CI [2]: 0.75 | Activity [3]: Active | Activity [4]: Non-Toxic | Activity [5]: Non-Toxic | TGI [6]: 77.21% | Activity [7]: Active | CI [8]: 0.93 | Activity [9]: Active | CI [10]: 0.6 | viability at 15 µM [11]: 52.7% | Activity [12]: Non-Toxic | Activity [13]: Active | Activity [14]: 36.1% | Activity [15]: Active | Activity [16]: Non-Toxic | CI [17]: 0.48 | Activity [18]: Non-Toxic | CI [19]: 0.43 | CI [20]: 0.43 | Activity [21]: Dose-dependent effect | Activity [22]: Active | viability at 15 µM [23]: 73.1% | CI [24]: 1.15 | Activity [25]: Non-Toxic | Activity [26]: 1.3% | Activity [27]: Non-Toxic | Activity [28]: Active | Activity [29]: Non-Toxic
